Reference: US20200038415A1, “AMINOSTEROL COMPOSITIONS AND METHODS OF USING THE SAME FOR TREATING ERECTILE DYSFUNCTION” (Enterin, Inc., priority 2018, published 2020)
Several values for one entry are separate records, joined by “and”; a condition that tells them apart may be missing. Equal entries are not always repeated.

Legend:
[1] = tested on: PD patients with constipation; test: Phase 2 trial Stage 1: prokinetic response to single escalating oral doses; assay type: in vivo, human; conditions: Example 1, FIG. 1A
Method: Following successful screening, all subjects underwent a 14-day run-in period where the degree of constipation was assessed through a validated daily log (Zinsmeister et al. 2013) establishing baseline CSBMs/week. Subjects with an average of <3 CSBMs/week proceeded to dosing.
Tolerability limits included diarrhea or vomiting.

[2] = Pharmacokinetics of orally administered squalamine (ENT-01) in Stage 1; assay type: in vivo, human; conditions: based on PK of intravenously administered squalamine in prior clinical studies
Method: PK data were collected on the 10 patients enrolled in Stage 1 and 10 patients enrolled in Stage 2 to determine the extent of systemic absorption. In Stage 1, PK data were obtained at each visit, pre-medication, at 1, 2, 4, 8 and 24 hours (Table 10). In Stage 2, PK was measured on days 1 and 6 of the randomization period pre-medication, at 1, 2, 4 and 8 hours (Table 11).
The mean Cmax, Tmax and T1/2 and AUC of the squalamine ion following squalamine (ENT-01) oral dosing for Stage 1 patients. The PK analyses are only approximate, as the lower limit of the validated concentration range was 10 ng/ml; most of the measured concentrations fell below that value. The mean Cmax, Tmax and T1/2 and AUC of the squalamine ion following squalamine (ENT-01) oral dosing for Stage 2 patients. The PK analyses are only approximate, as the lower limit of the validated concentration range was 0.5 ng/ml.

[3] = Solubility in water; assay type: physicochemical; conditions: phosphate salt
[4] = tested on: PD patients with constipation; test: CNS symptoms in Stage 2 (UPDRS, MMSE, PDHQ, BDI-II, sleep diary); assay type: in vivo, human; conditions: for hallucinations and delusions improved or disappeared during treatment: 6 patients with hallucinations or delusions at baseline
Excerpt: (5) Sleep Diary (participants completed a sleep diary on a daily basis throughout the study. The diaries included time into bed and estimated time to sleep as well as wake time and duration during the night.);
(8) Beck Depression Inventory (BDI-II);
(9) Unified Parkinson's Disease Rating Scale (UPDRS), which consists of 42 items in four subscales (Part I=Non-Motor Aspects of Experiences of Daily Living (nM-EDL) (1.1 cognitive impairment, 1.2 hallucinations and psychosis, 1.3 depressed mood, Part II=Motor Aspects of Experiences of Daily Living (M-EDL), Part III=Motor Examination, and Part IV=Motor Complications;
(10) Mini Mental State Examination (MMSE);
(12) The University of Miami Parkinson's Disease Hallucinations Questionnaire (UM-PDHQ);
Exploratory end-points, in addition to constipation, included for example, (i) depression assessed using the Beck Depression Inventory (BDI-II) (Steer et al. 2000) and Unified Parkinson's Disease Rating Scale (UPDRS); (ii) cognition assessed using the Mini Mental State Examination (MMSE) (Palsteia et al. 2018), Unified Parkinson's Disease Rating Scale (UPDRS), and Trail Making Test (TMT); (iii) sleep and REM-behavior disorder (RBD) using a daily sleep diary, I-Button Temperature Assessment, a REM sleep behavior disorder (RBD) questionnaire (RBDQ) (Stiasny-Kolster et al. 2007), and the UPDRS; (iv) hallucinations assessed using the PD hallucinations questionnaire (PDHQ) (Papapetropoulos et al. 2008), the UPDRS, and direct questioning; (v) fatigue using the Parkinson's Disease Fatigue Scale (PFS-16) and the UPDRS; (vi) motor functions using the UPDRS; and (vii) non-motor functions using the UPDRS.
Assessments were made at baseline and at the end of the fixed dose and washout periods. Circadian system status was evaluated by continuously monitoring wrist skin temperature (Thermochron iButton DS1921H; Maxim, Dallas) following published procedures (Sarabia et al. 2008).
An exploratory analysis was done with respect to the sleep data, the body temperature data, mood, fatigue, hallucinations, cognition and other motor and non-motor symptoms of PD. Continuous measurements within a subject were compared with a paired t-test and continuous measurements between subject groups were compared with a two-group t-test. Categorical data were compared with a chi-squared test or a Fisher's exact test if the expected cell counts are too small for a chi-squared test.

[5] = Preclinical oral bioavailability and intestinal absorption in rats; assay type: in vivo; conditions: oral radioactive ENT-01, portal blood concentrations

CC(C)[C@@H](CC[C@@H](C)[C@H]1CC[C@H]2[C@@H]3[C@H](O)C[C@H]4C[C@@H](NCCCNCCCCN)CC[C@]4(C)[C@H]3CC[C@]12C)OS(=O)(=O)O (single isomer, unassigned) [squalamine (ENT-01), squalamine]
subjects responded with improved bowel function [1]: 80% | oral bio-availability (estimated) [2]: less than 0.3% | oral bio-availability (estimated) ([2]; listed as aminosterol): < 0.3% | solubility in water ([3]; neutral pH): weakly soluble | solubility in water ([3]; pH<3.5 (the pH of gastric fluid)): readily dissolves | hallucinations and delusions improved or disappeared during treatment [4]: 5 of 6 and five | hallucinations and delusions improved or disappeared during treatment ([4]; listed as aminosterol): five and 5 of 6 | improvement of arm or leg thrashing frequency ([4]; baseline 2.2 episodes/week to 0 at maximal dose): 100% | total sleep time versus baseline ([4]; beyond 125 mg): consistently higher than baseline | hallucinations/delusions did not return following discontinuation ([4]; in 1 patient): 4 weeks | hallucinations/delusions did not return following discontinuation ([4]; in another patient): 2 weeks | time free of hallucinations following cessation of dosing ([4]; one patient): 1 month | absorption from the intestine [5]: low
